For two compounds, IC50, Activity and microsomal CLint results are on record in ChEMBL document CHEMBL5316313, “Discovery of Novel 3-Phenylpiperidine Derivatives Targeting the β-Catenin/B-Cell Lymphoma 9 Interaction as a Single Agent and in Combination with the Anti-PD-1 Antibody for the Treatment of Colorectal Cancer” (J Med Chem, 2023).

Activity calls are given as the source filed them. No cut-off for these calls is given here.

Data set [1] deals with T1, beta-catenin-B-cell lymphoma 9 protein complex (Homo sapiens, UniProt P35222).
T1 sequence (P35222 whole entry): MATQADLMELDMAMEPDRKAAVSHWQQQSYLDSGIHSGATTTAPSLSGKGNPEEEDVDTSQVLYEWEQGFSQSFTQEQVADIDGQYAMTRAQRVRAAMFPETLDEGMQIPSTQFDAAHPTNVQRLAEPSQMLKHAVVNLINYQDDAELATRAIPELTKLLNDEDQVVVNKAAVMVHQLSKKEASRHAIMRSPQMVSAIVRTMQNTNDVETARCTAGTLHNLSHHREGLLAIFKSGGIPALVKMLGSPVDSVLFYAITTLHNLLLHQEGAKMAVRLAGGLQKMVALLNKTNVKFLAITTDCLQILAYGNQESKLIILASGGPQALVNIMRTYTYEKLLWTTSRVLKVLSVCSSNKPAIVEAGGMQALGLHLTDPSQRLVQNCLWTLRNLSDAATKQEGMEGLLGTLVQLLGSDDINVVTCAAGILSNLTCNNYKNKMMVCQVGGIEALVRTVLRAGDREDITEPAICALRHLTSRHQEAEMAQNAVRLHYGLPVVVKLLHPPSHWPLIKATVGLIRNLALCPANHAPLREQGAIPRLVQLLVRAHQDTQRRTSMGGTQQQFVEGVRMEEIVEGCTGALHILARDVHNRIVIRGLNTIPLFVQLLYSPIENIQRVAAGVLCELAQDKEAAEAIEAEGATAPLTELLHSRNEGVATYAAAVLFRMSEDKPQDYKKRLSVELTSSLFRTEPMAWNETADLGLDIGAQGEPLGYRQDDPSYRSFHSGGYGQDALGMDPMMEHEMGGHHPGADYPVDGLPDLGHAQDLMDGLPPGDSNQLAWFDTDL
T1 sequence (O00512 whole entry): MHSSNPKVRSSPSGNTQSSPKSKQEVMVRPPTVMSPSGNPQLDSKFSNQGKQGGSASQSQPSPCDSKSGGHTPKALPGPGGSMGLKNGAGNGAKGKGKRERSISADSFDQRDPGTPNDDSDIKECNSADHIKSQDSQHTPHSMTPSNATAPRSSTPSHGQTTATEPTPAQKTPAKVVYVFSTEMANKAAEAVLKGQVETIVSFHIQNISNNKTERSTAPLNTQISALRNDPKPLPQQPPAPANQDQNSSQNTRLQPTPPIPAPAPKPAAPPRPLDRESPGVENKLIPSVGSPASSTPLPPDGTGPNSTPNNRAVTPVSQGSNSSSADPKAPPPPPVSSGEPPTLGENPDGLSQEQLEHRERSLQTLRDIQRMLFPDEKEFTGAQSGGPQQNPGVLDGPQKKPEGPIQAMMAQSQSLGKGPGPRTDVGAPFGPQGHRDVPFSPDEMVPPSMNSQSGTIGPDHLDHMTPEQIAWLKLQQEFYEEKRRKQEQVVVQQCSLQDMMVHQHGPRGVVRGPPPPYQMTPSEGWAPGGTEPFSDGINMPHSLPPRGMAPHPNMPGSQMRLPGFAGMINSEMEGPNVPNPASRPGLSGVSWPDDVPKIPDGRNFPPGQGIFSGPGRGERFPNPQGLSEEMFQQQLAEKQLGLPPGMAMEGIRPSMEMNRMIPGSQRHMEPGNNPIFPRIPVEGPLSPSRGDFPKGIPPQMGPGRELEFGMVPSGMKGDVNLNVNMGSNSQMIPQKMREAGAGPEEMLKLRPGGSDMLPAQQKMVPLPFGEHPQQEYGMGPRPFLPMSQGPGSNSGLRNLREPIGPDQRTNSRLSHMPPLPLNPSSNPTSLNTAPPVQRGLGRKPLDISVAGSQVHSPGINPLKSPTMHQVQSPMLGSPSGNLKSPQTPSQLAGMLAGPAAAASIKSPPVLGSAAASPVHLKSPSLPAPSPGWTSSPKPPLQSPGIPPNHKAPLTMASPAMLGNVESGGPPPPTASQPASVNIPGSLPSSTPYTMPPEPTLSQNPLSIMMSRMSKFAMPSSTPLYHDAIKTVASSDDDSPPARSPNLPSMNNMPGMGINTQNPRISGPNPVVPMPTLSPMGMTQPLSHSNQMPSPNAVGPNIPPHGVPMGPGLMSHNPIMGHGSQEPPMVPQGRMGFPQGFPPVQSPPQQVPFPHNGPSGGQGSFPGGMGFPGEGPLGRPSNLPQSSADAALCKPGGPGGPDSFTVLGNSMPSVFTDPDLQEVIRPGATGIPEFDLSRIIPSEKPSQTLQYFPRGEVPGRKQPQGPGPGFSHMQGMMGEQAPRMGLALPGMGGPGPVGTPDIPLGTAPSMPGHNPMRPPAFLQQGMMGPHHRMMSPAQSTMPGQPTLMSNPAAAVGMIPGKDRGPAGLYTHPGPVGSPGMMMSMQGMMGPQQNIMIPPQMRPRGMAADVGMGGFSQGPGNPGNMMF
The experiment in a line: Inhibition of beta-catenin/BCL9 protein-protein interaction in Wnt-independent human A549 cells assessed as reduction in Axin2 expression level by qRT-PCR assay. In kind it is cell-based. (In qPCR the cycle at which signal appears reflects the starting amount.)

Data set [2] concerns the target T1, beta-catenin-B-cell lymphoma 9 protein complex. In words: Inhibition of beta-catenin/BCL9 protein-protein interaction in Wnt-dependent human HCT-116 cells assessed as reduction in Axin2 expression level by qRT-PCR assay. The data set is classed as cell-based.
Data set [3] is described as follows: Toxicity in BALB/c mouse xenografted with mouse CT26 cells assessed as pathological changes in spleen at 30 mg/kg, ip QD by hematoxylin and eosin staining based microscopic analysis. The data set is classed as organism-based. The note with it: in vivo.
Data set [4] deals with CT26. In words: Antitumor activity in mouse CT26 cells xenografted in BALB/c mouse assessed as increase in CD8+ T cell infiltration into tumor at 30 mg/kg, ip QD by flow cytometry. The data set is classed as functional, organism-based.
The nature of data set [5]: Microsomal stability in mouse liver microsomes assessed as intrinsic clearance at […] and measured upto 60 mins by LC-MS/MS analysis. In kind it is ADME, Microsome. The conditions noted are these: read-out: CLH. Background: Liver microsomes are vesicles of endoplasmic reticulum, rich in cytochrome P450 enzymes.
Data set [6] concerns HCT-116. In words: Induction of apoptosis in Wnt-dependent human HCT-116 cells assessed as necrotic cells at 10 uM incubated for 24 hrs by Annexin V-Alexa Fluor 647/PI staining based flow cytomtery (Rvb=1.47%). The data set is classed as functional.
Data set [7] relates to CT26. In words: Antitumor activity in mouse CT26 cells xenografted in BALB/c mouse assessed as increase in IFNgamma-positive CD8+ T cell infiltration into tumor at 30 mg/kg, ip QD by flow cytometry. In kind it is functional, organism-based.
Data set [8] can be described thus: Toxicity in BALB/c mouse xenografted with mouse CT26 cells assessed as adverse effect at 30 mg/kg, ip QD and measured upto 9 days in presence of anti-PD-1 antibody cotreatment at 10 mg/kg,ip BIW. The conditions noted are these: in vivo, 216 h, time < 9 day. In kind it is organism-based.
The nature of data set [9]: Toxicity in BALB/c mouse xenografted with mouse CT26 cells assessed as pathological changes in liver at 30 mg/kg, ip QD by hematoxylin and eosin staining based microscopic analysis. In kind it is organism-based. The conditions noted are these: in vivo.
Data set [10] deals with A549. In words: Antiproliferative activity against Wnt-independent human A549 cells assessed as cell growth inhibition at 40 uM incubated for 48 hrs by CellTiter-Glo assay. The data set is classed as functional, cell-based.
Data set [11] has as its system CT26. In words: Synergistic antitumor activity in mouse CT26 cells xenografted in BALB/c mouse assessed as increase in granzyme B-positive CD8+ T cell infiltration into tumor at 30 mg/kg, ip QD in presence of anti-PD-1 antibody cotreatment at 10 mg/kg,ip BIW by flow cytometry. In kind it is functional, organism-based. For orientation: In flow cytometry, cells or beads pass a laser one at a time.

As usually defined, the IC50 is the concentration that inhibits the measured activity by half. Consider `O=C1[C@H](Cc2ccc(O)cc2)N2C(=O)CCN(C(=O)NCc3ccccc3)[C@H]2CN1Cc1cccc2ccccc12`, for which the IC50 is 24.7 µM in data set [1] and 2.69 µM in [2].

`CC(C)c1ccc(-c2cccc(S(=O)(=O)N3CCCC(c4cccc(OC(C)(C)C(=O)NS(=O)(=O)c5ccc(C(F)(F)F)cc5)c4)C3)c2)cc1` (stereo unspecified): the Activity result was “Non-Toxic” in data set [3], 2% in data set [6], “Non-Toxic” in data set [8] and “Non-Toxic” in data set [9]. For the same compound, the result in [4], in data set [7] and in data set [11] was Active. Moreover, the microsomal CLint in [5] came to 66.2 µL/min/mg. For the same compound, the result in data set [10] was inactive.
